US20120028995A1, “NOVEL COMPOUNDS FOR MEDICAL USE AS PEPTIDASE EFFECTORS” (IMTM GMBH, priority 2010, published 2012)
Read-outs that look alike come from different tables or passages of the source.

Experiments:
[1] = biological target: T1, aminopeptidase N (APN), purified recombinant human enzyme (Homo sapiens, UniProt P15144); assay: Inhibition of enzymatic activity of aminopeptidase N (fluorogenic substrate hydrolysis); type: biochemical; conditions: highest test item concentration 25 μM; for IC50: read-out: meas. IC50 (APN)
T1 construct: made in house; host or cells: ECV cells (transfected)
Description: The inhibition of the enzymatic activity of aminopeptidase N (APN) was measured by using purified, recombinant human enzyme (purified from transfected ECV cells, final enzyme concentration approx. 1 nM). […] The assay was performed in 0.05M TRIS/HCl puffer pH 7.5, supplemented with 0.05% Triton (v/v), 0.05% BSA (w/v), 2 mM MgCl2.
The aminopeptidase acitivities wer assessed by the hydrolysis of the fluorogenic substrates H-Ala-4-amino-7-methyl coumarine (abbreviation of fluorogenic group AMC; purchased from Bachem) or (Ala-)2-Rhodamine 110 (abbreviation R110). The final substrate concentrations were again 50 and 1 μM, respectively.
(§1) The assay was performed in white microtitre plates for fluorescence measurements. The test items, substrate and enzyme were diluted in assay buffer. The highest test item concentration used was 25 μM. For the calculation of IC50 values, at least 16 log 2-dilutions of each test item were analyzed. As controls, the DPIV activity in the absence of test items as well as the spontaneous hydrolysis of the substrate was determined.
The release of the fluorescent hydrolysis products AMC and R110 was measured as described above for DPIV substrates.

NHEK cells = assay: Inhibition of DNA synthesis and proliferation of normal human epidermal keratinocytes (NHEK); type: cell-based; conditions: EGF-stimulated NHEK, BrdU incorporation, read-out: Supp. DNA Synt. NHEK IC50
Description: NHEK cells (primary cells from person) were purchased from PromoCell. For these assay the adherent cells were cultured in serum-free Keratinocyte Growth medium 2 supplemented with epidermal growth factor (EGF) and bovine pituitary extract for 48 hours in flat-bottom microtiter plates. EGF stimulates the DNA synthesis and proliferation of these cells. Test items were added in concentrations from 0.1 up to 100 μM.
The DNA synthesis was assessed by incorporation of bromdesoxyuridine (BrdU) and subsequent detection of BrdU by ELISA technique. Based on these raw data the relative proliferation response in relation to cells cultured in the absence of test compound (100% control) was calculated. IC50 values of proliferation suppression were assessed by computer-assisted graphical evaluation.

SZ95 cells = assay: Inhibition of DNA synthesis and proliferation of immortalized human sebocytes SZ95; type: cell-based; conditions: EGF-stimulated SZ95 sebocytes, tritium thymidine incorporation, read-out: Supp. DNA Synt. SZ95 IC50
Description: The immortalized human sebocyte line SZ95 was provided by Prof. C Zouboulis [C C Zouboulis, H Seltmann, H Neitzel, C E Orfanos, Establishment and characterization of an immortalized human sebaceous gland cell line (SZ95). J. Invest. Dermatol. 113(6):1011-1020 (1999), the entire disclosure of which is incorporated by reference herein]. These adherent growing cells were cultured in serum-free Sebomed Complete (Biochrom). Recombinant EGF was added in order to stimulate DNA synthesis and proliferation of the SZ95 cells. Test items were added in concentrations from 0.1 up to 100 μM.
The DNA synthesis of proliferating cells was detected by incorporation of radiolabelled tritium thymidine (3HT) and counting at a beta counter. Based on these raw data the relative proliferation response in relation to cells cultured in the absence of test compound (100% control) was calculated. IC50 values of proliferation suppression were assessed by computer-assisted graphical evaluation.

[2] = biological target: T2, purified, recombinant human DPIV (Homo sapiens, UniProt P27487); assay: Inhibition of enzymatic activity of DPIV (fluorogenic substrate hydrolysis); type: biochemical; conditions: highest test item concentration 25 μM
T2 construct: made in house; host or cells: Sf9 insect cells
Description: (§2) The inhibition of the enzymatic activity of DPIV and related enzymes was measured by using purified, recombinant human DPIV (purified from transfected Sf9 cells, final enzyme concentration approx. 1 nM) as well as purified, recombinant DP8 and DP9 (purchased from Biomol). The assay was performed in 0.05M TRIS/HCl puffer pH 7.5, supplemented with 0.05% Triton (v/v), 0.05% BSA (w/v), 2 mM MgCl2.
(§3) The enzymatic activity of DPIV was assessed by the hydrolysis of the fluorogenic substrates H-Gly-Pro-4-amino-7-methyl coumarine (abbreviation of fluorogenic group AMC; purchased from Bachem) or (Ala-Pro)2-Rhodamine 110 (abbreviation R110). The final substrate concentrations were 50 μM or 1 μM, respectively.
as §1
(§4) The release of the fluorescent hydrolysis product AMC was measured at an excitation wavelength of 380 nm and an emission wavelength of 460 nm by using a microtitre fluorescence reader immediately after substrate addition as well as after 30, 60 and 120 min. The hydrolysis of the substrate (Ala-Pro)2-Rhodamine 110 was determined at an exitation wavelength of 488 nm and emission wavelength of 530 nm.

[3] = system: purified, recombinant DP8 and DP9; assay: Inhibition of enzymatic activity of DP8/9; type: biochemical; conditions: highest test item concentration 25 μM; for IC50: read-out: meas. IC50 (DP8/9)
Description: as §2, §3, §1, §4

T lymphocytes (T cells) = assay: Suppression of DNA synthesis of PHA-stimulated T lymphocytes; type: cell-based; conditions: tritium thymidine incorporation, read-out: Supp. DNA Synt. T-cell IC50
Description: Peripheral blood mononuclear cells (PBMC) from healthy human volunteers were freshly isolated by density gradient centrifugation. T lymphocytes (T cells) were isolated from PBMC fractions via nylon wool adherence. Both cell populations were cultured in serum free lymphocyte medium (AIMV medium, Invitrogen) and stimulated by addition of 1 μg/ml Phytohemagglutinine for 48 hours in 96 well flat-bottom microtiter plates. Test compounds were added at concentration ranges from 0.1 up to 250 μM over the total assay period.
DNA synthesis of proliferating PBMC was assessed by incorporation of nucleotide analogue bromdesoxyuridine (BrdU) and subsequent detection of BrdU by ELISA technique (Cell Proliferation Biotrak™ ELISA system, GE Health Care) according to the protocol of the manufacturer. DNA synthesis of proliferating T cells was determined by incorporation of radio labelled tritium thymidine and subsequent radio detection.
Data output was based on raw data and calculation of relative proliferation response in relation to PHA-activated T cells in the absence of test compound (100% control). The IC50 value of proliferation suppression was assessed by graphical evaluation.

[4] = biological target: T3, cytosolic aminopeptidase (cAAP) purified from Jurkat cells (Homo sapiens, UniProt P55786); assay: Inhibition of enzymatic activity of cytosolic aminopeptidase (cAAP); type: biochemical; conditions: highest test item concentration 25 μM; for IC50: read-out: meas. IC50 (cAAP)
T3 construct: The cytosolic aminopeptidase (cAAP) was purified from Jurkat cells; endogenous in cells; host or cells: Jurkat cells (enzyme purified from them)
T3 sequence (P55786 whole entry): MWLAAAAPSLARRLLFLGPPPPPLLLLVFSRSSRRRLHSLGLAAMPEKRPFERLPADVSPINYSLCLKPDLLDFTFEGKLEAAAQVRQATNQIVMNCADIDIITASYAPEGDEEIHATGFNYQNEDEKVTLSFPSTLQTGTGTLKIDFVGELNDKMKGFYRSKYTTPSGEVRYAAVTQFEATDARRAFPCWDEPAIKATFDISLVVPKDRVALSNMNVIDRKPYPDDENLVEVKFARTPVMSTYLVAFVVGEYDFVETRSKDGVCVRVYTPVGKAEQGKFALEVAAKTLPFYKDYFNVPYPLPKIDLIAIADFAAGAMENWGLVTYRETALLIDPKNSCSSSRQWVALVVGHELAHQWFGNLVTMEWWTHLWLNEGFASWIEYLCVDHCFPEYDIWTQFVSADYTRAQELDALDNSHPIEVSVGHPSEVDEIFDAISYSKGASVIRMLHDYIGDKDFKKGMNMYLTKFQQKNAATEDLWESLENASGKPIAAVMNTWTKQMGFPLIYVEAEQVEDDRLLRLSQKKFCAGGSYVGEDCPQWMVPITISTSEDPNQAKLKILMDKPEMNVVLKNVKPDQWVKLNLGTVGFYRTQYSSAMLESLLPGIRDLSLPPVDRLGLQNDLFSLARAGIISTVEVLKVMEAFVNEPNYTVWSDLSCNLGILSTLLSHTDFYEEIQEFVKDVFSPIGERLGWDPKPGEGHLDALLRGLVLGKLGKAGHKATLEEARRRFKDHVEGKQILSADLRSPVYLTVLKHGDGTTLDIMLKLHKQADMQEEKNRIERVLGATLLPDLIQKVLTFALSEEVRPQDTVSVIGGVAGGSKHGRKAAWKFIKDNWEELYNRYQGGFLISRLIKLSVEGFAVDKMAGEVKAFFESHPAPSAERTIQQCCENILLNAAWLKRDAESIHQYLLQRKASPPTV

T2 sequence (P27487 whole entry): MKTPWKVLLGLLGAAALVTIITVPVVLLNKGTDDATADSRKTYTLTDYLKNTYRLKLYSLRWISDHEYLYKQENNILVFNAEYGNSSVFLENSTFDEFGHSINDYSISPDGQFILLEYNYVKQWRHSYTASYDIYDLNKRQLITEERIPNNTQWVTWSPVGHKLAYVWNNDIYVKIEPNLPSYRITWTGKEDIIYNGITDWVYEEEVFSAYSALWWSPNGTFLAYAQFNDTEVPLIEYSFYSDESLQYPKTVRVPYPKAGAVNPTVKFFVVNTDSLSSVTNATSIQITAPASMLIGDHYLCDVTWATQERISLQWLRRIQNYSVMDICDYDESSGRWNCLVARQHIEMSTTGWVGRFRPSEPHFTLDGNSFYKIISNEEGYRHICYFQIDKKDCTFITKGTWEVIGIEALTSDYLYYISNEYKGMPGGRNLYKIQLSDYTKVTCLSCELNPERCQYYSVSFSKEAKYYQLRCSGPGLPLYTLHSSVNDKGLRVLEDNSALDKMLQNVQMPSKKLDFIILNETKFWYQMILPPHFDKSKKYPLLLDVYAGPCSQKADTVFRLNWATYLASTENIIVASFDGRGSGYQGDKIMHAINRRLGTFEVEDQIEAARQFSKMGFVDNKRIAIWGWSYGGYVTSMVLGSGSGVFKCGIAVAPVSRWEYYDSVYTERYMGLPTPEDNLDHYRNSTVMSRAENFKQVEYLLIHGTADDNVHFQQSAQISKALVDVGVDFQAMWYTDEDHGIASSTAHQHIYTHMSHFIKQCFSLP
T1 sequence (P15144 whole entry): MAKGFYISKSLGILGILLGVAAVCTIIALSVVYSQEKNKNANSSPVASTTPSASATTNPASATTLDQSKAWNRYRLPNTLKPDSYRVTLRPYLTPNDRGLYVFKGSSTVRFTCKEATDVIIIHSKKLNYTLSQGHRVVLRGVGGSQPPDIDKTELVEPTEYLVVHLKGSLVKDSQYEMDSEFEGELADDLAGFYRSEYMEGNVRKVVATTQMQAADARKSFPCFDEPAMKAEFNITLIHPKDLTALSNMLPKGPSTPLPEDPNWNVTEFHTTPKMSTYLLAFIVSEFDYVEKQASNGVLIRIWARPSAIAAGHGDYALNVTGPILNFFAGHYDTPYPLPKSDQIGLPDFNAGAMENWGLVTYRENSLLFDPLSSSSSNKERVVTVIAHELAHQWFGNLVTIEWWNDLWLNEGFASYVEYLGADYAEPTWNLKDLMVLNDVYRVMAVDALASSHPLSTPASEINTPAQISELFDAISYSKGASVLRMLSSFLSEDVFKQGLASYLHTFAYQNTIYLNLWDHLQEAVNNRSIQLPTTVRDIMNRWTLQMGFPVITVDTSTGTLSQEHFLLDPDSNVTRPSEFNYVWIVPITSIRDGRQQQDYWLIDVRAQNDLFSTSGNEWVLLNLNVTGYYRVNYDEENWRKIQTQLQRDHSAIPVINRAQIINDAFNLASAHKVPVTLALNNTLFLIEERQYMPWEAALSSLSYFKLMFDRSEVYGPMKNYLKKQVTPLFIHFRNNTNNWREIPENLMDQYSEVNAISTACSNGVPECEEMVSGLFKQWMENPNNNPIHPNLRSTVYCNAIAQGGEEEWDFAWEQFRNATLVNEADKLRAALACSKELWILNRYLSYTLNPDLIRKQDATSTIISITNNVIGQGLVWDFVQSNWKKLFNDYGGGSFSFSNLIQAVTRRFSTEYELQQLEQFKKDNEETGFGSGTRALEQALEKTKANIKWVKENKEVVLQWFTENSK

Structure (SMILES) | meas. IC50 (APN) [1] | meas. IC50 (DPIV) [2] | meas. IC50 (DP8/9) [3] | IC50 (T lymphocytes (T cells); Homo sapiens, T-cell, 48 h) | meas. IC50 (cAAP) [4] | IC50 [1] | IC50 ([2]; read-out: meas. IC50 (DPIV)) | IC50 [3] | IC50 [4] | IC50 (NHEK cells; Homo sapiens, NHEK, 48 h) | IC50 (SZ95 cells; Homo sapiens) | IC50 (NHEK cells; 48 hours) | IC50 (SZ95 cells) | IC50 (T lymphocytes (T cells); PHA-stimulated human T cells, 48 hours)
CC(C)(C)OC(=O)NC(CNC(=O)c1cccc(NC(=O)C(O)C(COCc2ccccc2)NC(=O)OC(C)(C)C)c1)Cc1cc(F)ccc1F (centres unmarked) [Compound C19.015] | no in- hibition | no in- hibition | no in- hibition | 8 µM | no in- hibition |  |  |  |  | 15.9 µM | 5.75 µM |  |  | 
NC(CNC(=O)c1cccc(NC(=O)C(O)C(N)COCc2ccccc2)c1)Cc1cc(F)ccc1F (centres unmarked) [Compound C19.031] |  |  |  | 58.2 µM |  | 0.012 µM | 2.3 µM | 13.3 µM | 0.18 µM | 20.1 µM | ≥ 119 µM |  |  | 
CC(C)(C)OC(=O)NC(CCCCNC(=O)C(O)C(Cc1ccccc1)NC(=O)OC(C)(C)C)C(=O)N1CCSC1 (centres unmarked) [Compound C21.002] | no in- hibition | no in- hibition | no in- hibition | 55.1 µM | no in- hibition |  |  |  |  | 49.3 µM | 61.6 µM |  |  | 
CC(=O)SC(C(=O)NCCCCC(NC(=O)OC(C)(C)C)C(=O)N1CCSC1)C(Cc1ccccc1)NC(=O)OC(C)(C)C (centres unmarked) [Compound C22.001] | no in- hibition | no in- hibition | no in- hibition | 136 µM |  |  |  |  | 0.57 µM | ≥ 200 µM | 57.1 µM |  |  | 
CC(C)(CNC(=O)CC(Cc1cc(F)ccc1F)NC(=O)OCc1ccccc1)CNC(=O)C(O)C(COCc1ccccc1)NC(=O)OCc1ccccc1 (centres unmarked) [Compound C19.008] | no in- hibition | no in- hibition | no in- hibition | 5.7 µM |  |  |  |  | 5.8 µM | 6.77 µM | 8.6 µM |  |  | 
CC(C)(CNC(=O)CC(Cc1cc(F)ccc1F)NC(=O)OCc1ccccc1)CNC(=O)C(O)C(N)COCc1ccccc1 (centres unmarked) [Compound C19.026] |  | No in- hibition |  | 12.2 µM |  | 1 µM |  | 7.3 µM | 0.5 µM | 8.9 µM | 22.7 µM |  |  | 
CC(C)[C@@H]1CC[C@@H](C)CC1OC(=O)CC(Cc1cc(F)ccc1F)NC(=O)OC(C)(C)C (some centres unmarked) [Compound C-122] | no in- hibition | no in- hibition | no in- hibition | 5.83 µM | no in- hibition |  |  |  |  | 69.4 µM | 65.2 µM |  |  | 
CC(C)(CNC(=O)CC(Cc1cc(F)ccc1F)NC(=O)OC(C)(C)C)CNC(=O)C(O)C(COCc1ccccc1)NC(=O)OC(C)(C)C (centres unmarked) [Compound C19.004] | no in- hibition | no in- hibition | no in- hibition |  | no in- hibition |  |  |  |  |  |  | 19.8 µM | 18.3 µM | 9.7 µM

Now from value to compound, other results behind:

meas. IC50 (APN) [1] | meas. IC50 (DPIV) [2] | meas. IC50 (DP8/9) [3] | IC50 (T lymphocytes (T cells); Homo sapiens, T-cell, 48 h) | meas. IC50 (cAAP) [4] | IC50 [1] | IC50 ([2]; read-out: meas. IC50 (DPIV)) | IC50 [3] | IC50 [4] | Structure (SMILES) | IC50 (NHEK cells; Homo sapiens, NHEK, 48 h) | IC50 (SZ95 cells; Homo sapiens) | IC50 (NHEK cells; 48 hours) | IC50 (SZ95 cells) | IC50 (T lymphocytes (T cells); PHA-stimulated human T cells, 48 hours)
no in- hibition | no in- hibition | no in- hibition | 19.8 µM | no in- hibition |  |  |  |  | CCCCCC(=O)NC(CC(=O)NCC(C)(C)CNC(=O)C(OC(=O)CCCCC)C(COCc1ccccc1)NC(=O)CCCCC)Cc1cc(F)ccc1F (centres unmarked) [Compound C19.014] | 2.97 µM | ≥ 149 µM |  |  | 
no in- hibition | no in- hibition | no in- hibition | 78.6 µM | no in- hibition |  |  |  |  | CCCCCCCC(=O)OC(C(=O)NCC(C)(C)CNC(=O)CC(Cc1cc(F)ccc1F)NC(=O)OC(C)(C)C)C(COCc1ccc(OC)cc1)NC(=O)OC(C)(C)C (centres unmarked) [Compound C19.007] | ≥ 120 µM | 56.8 µM |  |  | 
no in- hibition | no in- hibition | no in- hibition | 30.5 µM | no in- hibition |  |  |  |  | CCCC(=O)NC(CC(=O)NCC(C)(C)CNC(=O)C(O)C(COCc1ccccc1)NC(=O)CCC)Cc1cc(F)ccc1F (centres unmarked) [Compound C19.017] | 64.6 µM | ≥ 173 µM |  |  | 
no in- hibition | no in- hibition | no in- hibition | 6.2 µM |  |  |  |  | 10.2 µM | COc1ccc(COCC(NC(=O)OC(C)(C)C)C(O)C(=O)NCC(C)(C)CNC(=O)CC(Cc2cc(F)ccc2F)NC(=O)OC(C)(C)C)cc1 (centres unmarked) [Compound C19.006] | 24.1 µM | 18.5 µM |  |  | 
no in- hibition | no in- hibition | no in- hibition | 122 µM | no in- hibition |  |  |  |  | CC(C)(CNC(=O)CC(Cc1cc(F)ccc1F)NC(=O)OC(C)(C)C)CNC(=O)C(OC(=O)C(C)(C)C)C(COCc1ccccc1)NC(=O)OC(C)(C)C (centres unmarked) [Compound C19.019] | ≥ 131 µM | 70.6 µM |  |  | 
no in- hibition | no in- hibition | no in- hibition | 12.2 µM |  |  |  |  | 0.51 µM | CCCCCC(=O)NC(CC(=O)NCC(C)(C)CNC(=O)C(O)C(COCc1ccccc1)NC(=O)CCCCC)Cc1cc(F)ccc1F (centres unmarked) [Compound C19.012] | 17.5 µM | 28.6 µM |  |  | 
